According to ChEMBL document CHEMBL1143112, “Three-component, one-pot synthesis of novel 2,4-substituted 5-azolylthiopyrimidine library for screening against anti-influenza virus A” (Bioorg Med Chem Lett, 2008):
Values after ≈ are worked out from the molar mass of the structure shown.

Columns and labels:
[1] = Selectivity index, CC50 for dog MDCK cells to IC50 for influenza A virus H3N2; type: functional
[2] = Cytotoxicity against dog MDCK cells; type: cell-based, Canis lupus familiaris
Influenza B virus = experiment: Antiviral activity against influenza B virus expressed in dog MDCK cells assessed as reduction of virus-induced cytopathic effect; type: functional, organism-based

Row | SMILES | CC50 [2] | other results
1 | Cn1ccnc1Sc1cnc(C(C)(C)C)nc1-c1ccccc1O |  | Selectivity index [1]: 9
2 | CC(C)(C)c1nccc(-c2ccccc2O)n1 | 16200 µg/mL (≈ 71.2 mM) | 
3 | CC(C)(C)c1ncc(Sc2nc[nH]n2)c(-c2cc(Cl)ccc2O)n1 | 9580 µg/mL (≈ 26.5 mM) | 
4 | COc1ccc(O)c(-c2nc(SC)ncc2Sc2nccn2C)c1 | 7190 µg/mL (≈ 19.9 mM) | 
5 | NC(=O)c1ncn([C@@H]2O[C@H](CO)[C@@H](O)[C@H]2O)n1 [RIBAVIRIN] |  | IC50 (Influenza B virus): 4270 µg/mL (≈ 17.5 mM)
